# Experimental data taken from patent publication US12123028B2, “Viral inactivation methods for continuous manufacturing of antibodies” (Bayer HealthCare LLC, priority 2018, dated 2024).
# Test system: X-MuLV
# Test: Dual X-MuLV inactivation by low pH and detergent in mAb protein A eluate, remaining infectivity by TCID50 assay on PG-4 cells
# Format: cell-based, Xenotropic Murine Leukemia Virus
# Details: for LRF ± 95% CL: 16° C.
# Protocol: […] The pH adjusted eluates were then filtered by a 0.22 um filter. Various volumes of 5% detergent stock solution were then added to the filtered protein A eluates. The low pH protein A eluates containing Mega-10, Tween 80 or Tween 20 were pre-incubated at a 16° C. water bath prior to spiking with X-MuLV at a 1:20 ratio. After a thorough mixing, an aliquot of sample was removed immediately and neutralized with 1 M Tris buffer to stop low pH viral inactivation, then immediately quenched with diluent at 1:12 for Mega-10 or at 1:100 for Tween 20 and Tween 80 to stop viral inactivation by the detergent. The collected sample was designated as a time-zero reference. The remaining spiked eluate was returned to the water bath and the samples were collected at indicated times to evaluate the viral inactivation kinetics. The remaining X-MuLV infectivity in the samples post-inactivation treatment was determined by a TCID50 assay that is an endpoint dilution assay to quantify the amount of virus required to produce a cytopathic effect in 50% of inoculated tissue culture cells. Virus titers were estimated using the Spearman-Karber method and reported as TCID50/mL with a calculated 95% confidence interval (CI). Briefly, a sufficient number of 96-well plates with PG-4 (feline S^+L^−, ATCC#CRL-2032) cells were prepared the day before starting the viral inactivation experiments and incubated overnight in a 37° C. humidified CO2 incubator. A set of ten 3.2 fold dilution of the diluted positive control (1:100) and viral inactivated samples were prepared in a dilution block. Each set of the 11 serial dilutions of the samples were inoculated correspondingly onto wells (100 μL per well) of the first 11 columns in a 96-well plate that had been pre-seeded with PG-4 cells. The 12th column in the same plate was inoculated with the corresponding diluent to serve as non-virus negative control. The positive control was prepared by spiking the filtered neutralized protein A eluate with X-MuLV at a 1:20 ratio. The inoculated plates were then incubated in a 37° C. humidified CO2 incubator for approximate 2 hours. A volume of 100 uL of 2× assay medium (92% McCoy's 5A medium, 4% FBS, 2% Penicillin/Streptomycin, 2% L-Glutamine) was added to each well of the plates at the end of incubation. The plates were then returned to the same incubator, and continued incubation for 6 days. Each well of the plates were scored under a microscope for the presence of cytopathic effect (CPE) and the results were recorded in a scoring sheet. Virus titers were then estimated using the Spearman-Karber method and reported as TCID50/mL with a calculated 95% confidence interval (CI).
compound,measurement,setting,value
"CCCCCCCCCC(=O)N(C)C[C@H](O)[C@@H](O)[C@H](O)[C@H](O)CO [Mega-10, N-Methylglucamide]",LRF ± 95% CL,"dual treatment pH 3.91 + 0.10% Mega 10, mAb1 protein A eluate, 0 minutes",3.74 ± 0.33
same,LRF ± 95% CL,"dual treatment pH 3.91 + 0.10% Mega 10, mAb1 protein A eluate, 2.5 minutes",≥ 5.40±0.21
same,LRF ± 95% CL,"dual treatment pH 3.91 + 0.10% Mega 10, mAb1 protein A eluate, 2.5 minutes, listed as Mega 10",≥5.40 ± 0.21
same,LRF ± 95% CL,"dual treatment pH 3.91 + 0.10% Mega 10, mAb1 protein A eluate, 5 minutes",≥5.40 ± 0.21
same,LRF ± 95% CL,"dual treatment pH 3.91 + 0.10% Mega 10, mAb1 protein A eluate, 10 minutes",≥5.40 ± 0.21
same,LRF ± 95% CL,"dual treatment pH 3.91 + 0.10% Mega 10, mAb1 protein A eluate, 30 minutes",≥5.40 ± 0.21
same,LRF ± 95% CL,"dual treatment pH 4.05 + 0.15% Mega 10, mAb2 protein A eluate, 0 minutes",1.62 ± 0.27
same,LRF ± 95% CL,"dual treatment pH 4.05 + 0.15% Mega 10, mAb2 protein A eluate, 2.5 minutes",3.96 ± 0.31
same,LRF ± 95% CL,"dual treatment pH 4.05 + 0.15% Mega 10, mAb2 protein A eluate, 5 minutes",5.50±0.83
same,LRF ± 95% CL,"dual treatment pH 4.05 + 0.15% Mega 10, mAb2 protein A eluate, 5 minutes, listed as Mega 10",5.50 ± 0.83
same,LRF ± 95% CL,"dual treatment pH 4.05 + 0.15% Mega 10, mAb2 protein A eluate, 10 minutes",≥5.81 ± 0.18^
same,LRF ± 95% CL,"dual treatment pH 4.05 + 0.15% Mega 10, mAb2 protein A eluate, 30 minutes",≥5.81 ± 0.18^
same,time to inactivate X-MuLV to the level below the detection limit,"dual treatment: mAb1 protein A eluate pH 3.91 with 0.1% Mega-10, 16° C. (240 minutes by pH 3.91 alone at 18° C.)",2.5 min
same,time needed for inactivating X-MuLV to the level below the detection limit,"dual treatment: mAb2 protein A eluate pH 4.05 with 0.15% Mega-10, 16° C. (120 minutes by pH 4.0 alone at 18° C.)",10 min
